The text below walks through data of patent US20240343757A1, “PROCESS FOR THE PREPARATION OF BUDESONIDE 21-PHOSPHATE” (GENETIC S.P.A., priority 2021, published 2024).

Some results are limits rather than exact numbers.

For series [1] the following is noted: background statement; cited from earlier work.
The conditions of series [2]: background statement; cited from earlier work. This is another data set of the same source.
A short description of series [3]: ICH stability testing of budesonide 21-phosphate disodium salt (drug substance). Particulars: for assay content by HPLC: specification 95.0-105.0%; for unknown impurities: specification ≤0.1%; for known impurities: specification ≤0.2%. The class given is physicochemical. As for the experimental part:
Purity was assessed through the HPLC method of the European Pharmacopoeia 1075-Budesonide-related substance. […]

A short description of series [4]: Stability in aqueous solution at the concentration of use, room temperature. The class given is physicochemical. Particulars: concentration of use 0.25 mg ml-4.0 mg ml. How it is done: At the concentration of use (0.25 mg ml-4.0 mg ml), it is rapidly soluble and remains stable at room temperature for long periods of time (12 months) without yellowing or precipitating.

The next series is described as follows: Solubility in water. The class given is physicochemical. An excerpt:
55, no. 1, pp. 578-582] at physiological pH in the intestinal region.
For this reason, hydroalcoholic solutions are usually prepared dissolving an adequate amount of active substance in solubilizers such as water-soluble alcohols. However, the so prepared solutions have low stability because large amounts of budesonide are decomposed within a short time. Moreover, budesonide formulations have been prepared until now in the form of aqueous suspensions in which the solid phase tends in time to deposit onto the bottom of the container, thus requiring chemical additives or vigorous stirring. These are the reasons that make budesonide not suitable to be delivered by an electric nebulizer.
Budesonide 21-phosphate disodium salt has a much higher water solubility than Budesonide and Budesonide 21-phosphate.

The mark [5] stands for this setting: 40° C. and 75% RH (accelerated), Time 0.
[6] abbreviates: 40° C. and 75% RH (accelerated), Time 3 m.
[7] abbreviates: 40° C. and 75% RH (accelerated), Time 6 m.

For `CCCC1OC2CC3C4CCC5=CC(=O)C=CC5(C)C4C(O)CC3(C)C2(C(=O)CO)O1` (stereo not drawn) [Budesonide, 1β,21-dihydroxy-16α, 17α-(butylidenebis(oxy)) pregna-1,4-diene-3,20-dione], the “solubility in water” value in series [1] is given as “virtually insoluble in water”. In series [2], the “solubility in alcohols” value is on record as “readily soluble in alcohols”.
For the compound Budesonide 21-phosphate disodium salt, the “assay content by HPLC” value in series [3] (25° C. and 60% RH, Time 0) was found to be 98.22%; in series [3] (25° C. and 60% RH, Time 3 m) it was 98.10%; in series [3] (25° C. and 60% RH, Time 6 m), 98.08%; in series [3] (25° C. and 60% RH, Time 9 m) it was 97.85%; in series [3] (25° C. and 60% RH, Time 12 m), 97.45%; in series [3] (30° C. and 65% RH, Time 0) it was 98.22%. In addition, the “assay content by HPLC” value in series [3] (30° C. and 65% RH, Time 3 m) is 97.50%; in series [3] (30° C. and 65% RH, Time 6 m), 97.28%; in series [3] (30° C. and 65% RH, Time 9 m) it was 97.00%; in series [3] (30° C. and 65% RH, Time 12 m), 94.55%; in series [3] (setting [5]), 98.22%; in series [3] (setting [6]), 96.50%. In addition, the “assay content by HPLC” value in series [3] (setting [7]) is 93.28%. The unknown impurities was found to be 0.05% in series [3] (25° C. and 60% RH, Time 0); 0.05% in series [3] (25° C. and 60% RH, Time 3 m); 0.05% in series [3] (25° C. and 60% RH, Time 6 m); 0.08% in series [3] (25° C. and 60% RH, Time 9 m); 0.08% in series [3] (25° C. and 60% RH, Time 12 m); 0.05% in series [3] (30° C. and 65% RH, Time 0). Further, the unknown impurities in series [3] (30° C. and 65% RH, Time 3 m) was 0.15%; in series [3] (30° C. and 65% RH, Time 6 m) it was 0.15%; in series [3] (30° C. and 65% RH, Time 9 m) it was 0.40%; in series [3] (30° C. and 65% RH, Time 12 m) it was 0.40%; in series [3] (setting [5]), less than 0.05%; in series [3] (setting [6]), 2.45%. Moreover, in series [3] (setting [7]), the unknown impurities is listed as 2.80%. In addition, the known impurities in series [3] (25° C. and 60% RH, Time 0) is on record as 0.14%; in series [3] (25° C. and 60% RH, Time 3 m), 0.14%; in series [3] (25° C. and 60% RH, Time 6 m), 0.14%; in series [3] (25° C. and 60% RH, Time 9 m), 0.15%; in series [3] (25° C. and 60% RH, Time 12 m), 0.15%; in series [3] (30° C. and 65% RH, Time 0), 0.14%. For the same compound, the known impurities in series [3] (30° C. and 65% RH, Time 3 m) amounted to 0.20%; in series [3] (30° C. and 65% RH, Time 6 m), 0.25%; in series [3] (30° C. and 65% RH, Time 9 m) it was 0.25%; in series [3] (30° C. and 65% RH, Time 12 m), 0.30%; in series [3] (setting [5]) it was 0.14%; in series [3] (setting [6]), 0.30%. In addition, the known impurities in series [3] (setting [7]) came to 0.45%. Moreover, the “period stable in solution without yellowing or precipitating” value in series [4] worked out at 12 months. Further, the water solubility in the series “Solubility in water” was determined as 110 mg/mL. For the same compound, the “water solubility class” value in “Solubility in water” (freely soluble = 100-1000 mg/mL) is “freely soluble in water”.
